Data taken from US12667568B2, “Compositions and methods for the treatment and diagnosis of cancer” (The General Hospital Corporation, priority 2020, dated 2026).

Legend:
Format in all cases: cell-based
[1] = tested on: MCF-7, HCC1954, and HCC1937 cells; assay: Cell survival assay, YW-1842 with DNA damaging agents, IR or H2O2
Method: (§1) FIGS. 6A-6E show TRDMT1 Inhibitors specifically sensitizes cells to DNA damage agents. (FIG. 6A) SCE WT cells were transfected with TA-KR and were cultured with 2.5 μM/L compound YW-1842 or not for 6 hours, m^5C (n=3, 50 cells per replicated, Mean±SD) was stained and quantified. DR-GFP (FIG. 6B) or EJ5-GFP (FIG. 6C) cells were pre-treated with 2.5 μM/L compound YW-1842 for 6 h or TRDMT1 siRNA for 48 h, or DMSO. Then the cells were transfected with NLS-I-SceI plasmid to induce DSB. The efficiency of HR (FIG. 6B) or NHEJ (FIG. 6C) was analyzed by flow-cytometry (n=3, Mean f SD). (FIG. 6D) After seeding, MCF-7, HCC1954, and HCC1937 cells were pre-treated with or without 2.5 μM/L compound YW-1842 for 6 h, then cultured with chemotherapy drugs (1 μM/L Cisplatin; 1 μM/L ATRi AZ20; […]; 1 μM/L PARPi Olaparib for 10 days. The survival rate of these cells was analyzed (n=3, Mean±SD). (FIG. 6E) TRDMT1 KO U2OS cells were transfected with GFP-TRDMT1^WT or GFP-TRDMT1^G155V with or without 2.5 μM/L compound YW-1842, the survival rate of these cells after IR or Cisplatin was shown (n=3, Mean±SD).
MCF-7, HCC1954, and HCC1937 cells were pre-treated with or without TRDMT1 inhibitor YW-1842 (2.5 μM) for 6 hrs, then the cells were exposed to IR or H2O2, and cultured for 7-14 days. The survival rate of these cells was analyzed (n=3, Mean±SD)
(§2) Approximately 500 U2OS/TRDMT1 KO U2OS/MCF-7/HCC1954/HCC1937 cells and TRDMT1 siRNA or GFP-TRDMT1 WT/G155V/K251R transfected cells were seeded in 6 cm dish with or without TRDMT1 inhibitors (2.5 μM/L). 6 hrs after seeding, cells were exposed to cisplatin (1134357, Sigma, 1 μM/L), ATMi (KU55933, C9867, Sigma, 1 μM/L), ATRi (AZ20, 57050, Selleck, 1 μM/L) or PARPi (Olaparib, AZD2461, Sigma, 1 μM/L) at indicated concentration or ionizing radiation (IR). After 7-14 days, colonies were fixed and stained with 0.3% crystal violet in methanol, and the number of colonies was counted manually.

U2OS (EJ5-GFP) cells = assay: EJ5-GFP NHEJ reporter assay; conditions: 2.5 μM/L, 6 h pre-treatment, TRDMT1 wild type cells
Method: as §1
Using a previously described method[Lan, L. et al. The ACF1 complex is required for DNA double-strand break repair in human cells. […] The GFP signal arising from the recombination (HR) or non-homologous end joining (NHEJ) events were measured by flow cytometry.

γ-H2AX foci = γ-H2AX foci clearance after damage; conditions: 2.5 μM/L YW-1842, cells after IR
Method: FIGS. 6F-6G show TRDMT1 inhibitor YW-1842 delays the repair of DSBs at the transcribed genome. (FIG. 6F) U2OS or MCF7 cells were treated with or without compound YW-1842 at the indicated concentration. […]
Cells for immunofluorescence observation were fixed in 4% PFA (Affymetrix, 19943 1 LT) at room temperature for 15 min and further treated with 0.2% triton for 10 min. They were then blocked by 3% BSA (SIGMA, A-7030) at room temperature for 1 h. Primary antibody for RAD51(ab63801, Abcam, 1:200)), RAD52(sc-365341, Santa Cruz, CA, USA, 1:500), TRIM28 (ab10484, Abcam, 1:500), γH2AX ser139 (JBW301, 05-636, EMD Millipore, 1:200), were incubated with cells at 4° C. overnight. After washing with 0.05% PBS-Tween (PBST), the cells were incubated with secondary antibody for 1 h at room temperature.

U2OS or MCF7 cells = assay: Cell survival assay, YW-1842 alone; conditions: concentration below 5 μM/L
Method: FIGS. 6F-6G show TRDMT1 inhibitor YW-1842 delays the repair of DSBs at the transcribed genome. (FIG. 6F) U2OS or MCF7 cells were treated with or without compound YW-1842 at the indicated concentration. The survival rate of these cells was shown (n=3, Mean±SD). (FIG. 6G) SCE WT cells were transfected with TA-KR and were cultured with […] YW-1842 or not for 6 hours, γ-H2AX (n=3, 50 cells per replicated, Mean±SD) were stained and quantified.
as §2

COc1cc2nc(-n3cc(-c4ccc(S(C)(=O)=O)cc4)cn3)nc(-c3ccsc3)c2cc1OC [YW-1842, 6,7-dimethoxy-2-(4-(4-(methylsulfonyl)phenyl)-1H-pyrazol-1-yl)-4-(thiophen-3-yl)quinazoline]
survival rate in combination with H2O2 ([1]; 2.5 μM, combined with H2O2, versus DMSO): decreased the survival rate of all the three cell lines
sensitization to DNA damaging agents (survival rate) ([1]; 2.5 μM/L with Cisplatin, ATRi AZ20, ATMi KU55933 or PARPi Olaparib, versus single treatment): sensitizes the cells to above DNA damaging agents
cell killing by compound alone ([1]; 2.5 μM/L, alone): does not kill cells alone
synergy with PARPi Olaparib ([1]; YW-1842 2.5 μM, Olaparib at 1, HCC 1954 cell lines): strong synergy
non-homologous end joining (NHEJ) efficiency (U2OS (EJ5-GFP) cells): no obvious changes
DNA repair efficiency, clearance of γ-H2AX foci (γ-H2AX foci): delayed clearance of γ-H2AX foci
antiproliferative effect (U2OS or MCF7 cells): did not prohibit cell proliferation
